Source: patent US20260294845A1, “Uses of Adrenalone to Manage Cardiotoxicity or Cardiovascular Disorders” (Emory University, priority 2023, published 2026)
“Also recorded” adds a separate entry of the source.

Experiments:
SCVI-273 hiPSC-CMs = experiment: Cell viability of EtOH-treated hiPSC-CMs derived from SCVI-273 hiPSCs; assay type: cell-based, human; settings: another cell line SCVI-273
From the text: (§1) EtOH-induced cardiotoxicity shares common disease phenotypes and possibly similar underlying mechanisms with drug-induced cardiotoxicity.

hiPSC-CMs [1] = experiment: Cardiac troponin T expression and mitochondrial content in EtOH-treated hiPSC-CMs; assay type: cell-based, human
From the text: as §1

hiPSC-CMs [2] = experiment: Intracellular oxidative stress (ROS) of carfilzomib-treated hiPSC-CMs, DCFDA/H2DCFDA assay; assay type: cell-based, human; settings: 24 h
Description: The quantification of oxidative stress was performed using DCFDA staining of SCVI hiPSC-CMs treated with Cfz with or without 4H10 for 24 hours.
The induction of oxidative stress is a crucial mechanism through which proteasome inhibitors induce apoptosis. To investigate if 4H10 could alleviate carfilzomib-induced increase of oxidative stress in cardiomyocytes, hiPSC-CMs were exposed to carfilzomib at 5 μM alone or together with 4H10 at various concentrations for 24 h. The production of cellular reactive oxygen species (ROS) was then measured using DCFDA/H2DCFDA assay kit.

hiPSC-CMs [3] = experiment: MitoTracker Red staining (mitochondrial content and activity) of carfilzomib-treated hiPSC-CMs, high-content imaging; assay type: cell-based, human; settings: 24 h
Description: MitoTracker™ Red staining was performed in IMR-90 hiPSC-CMs treated with CFZ with or without 4H10 for 24 hours.
(§2) A human induced pluripotent cell line (hiPSC line IMR90™, WiCell Research Institute) was fed daily on Matrigel™-coated plates with a defined medium for hiPSC culture, mTeSR1 medium. For CM differentiation, hiPSCs were induced using a growth factor-driven differentiation protocol as reported in Jha et al. Efficient differentiation of cardiomyocytes from human pluripotent stem cells with growth factors. Methods Mol Biol, 2015, 1299, 115-131. On the day of induction (day 0), medium was replaced with RPMI 1640 medium supplemented with 2% B27 minus insulin (a cell culture supplement) containing 100 ng/ml activin A. After induction for 24 h, the medium was replaced with fresh RPMI supplemented with 2% B27 minus insulin containing 10 ng/ml BMP4. From day 4 of differentiation, the medium was replaced with RPMI supplemented with 2% B27. On day 5, the cells were dissociated and reseeded into AggreWell400™ plates to acquire cardiac spheres. After 24 h, the cardiac spheres formed were collected and transferred to low-adhesion dishes for suspension culture. The medium was changed every other day. Cardiac spheres typically started beating spontaneously by day 7 to 9.
Mitochondria play a crucial role in energy production, cellular metabolism, and the regulation of cell death. Experiments indicate carfilzomib induces mitochondrial dysfunction in hiPSC-CMs. To assess the potential mitigating effects of 4H10 on carfilzomib-induced mitochondrial dysfunction, hiPSC-CMs were treated with carfilzomib alone or co-treated with 4H10 at various concentrations. Mitochondria were then visualized using MitoTracker™ Red dyes, which can accumulate in active mitochondria and allow for the measurement of mitochondrial content and activity in live cells.

hiPSC-CMs [4] = experiment: Cell viability assay and cell counting (high-content imaging) of EtOH-challenged hiPSC-CMs; assay type: cell-based, human
From the text: as §1

proteasome [5] = experiment: Proteasome activity in hiPSC-CMs after carfilzomib with or without 4H10; assay type: cell-based, human; settings: 4H10 co-treatment with carfilzomib, 24 h, IMR-90 hiPSC-CMs
Description: (§3) (top) Proteasome activity of IMR-90 hiPSC-CMs was measured after the cells were treated with CFZ with or without 4H10 for 24 hours. (bottom, right, left) Proteasome activity and cell viability of RPMI8226 cells (cancer cells) were measured after the cells were treated with CFZ with or without 4H10 for 24 hours.
The proteasome, responsible for the regulated degradation of proteins, is a key cellular component targeted by carfilzomib as part of its mechanism of action in cancer therapy. Therefore, in addition to validation of cardioprotective effects of 4H10 on cell viability and mitochondrial function, it is crucial to examine if 4H10 compromises the proteasome inhibition efficacy of carfilzomib.

hiPSC-CMs [6] = experiment: Cell viability of hiPSC-CMs treated with doxorubicin with or without 4H10 (CellTiter-Blue); assay type: cell-based, human
From the text: Doxorubicin is a widely used chemotherapy drug for various cancers, including breast cancer, leukemia, and lymphoma. However, one significant side effect associated with doxorubicin use is cardiotoxicity. It is contemplated that 4H10 may target common mechanisms of cardiotoxicity and have a broad impact of cardioprotection since it protects hiPSC-CMs from toxicity induced by both ethanol and carfilzomib.

hiPSC-CMs [7] = experiment: Cell viability of hiPSC-CMs treated with carfilzomib with or without 4H10 (CellTiter-Blue); assay type: cell-based, human; settings: for mitigation of carfilzomib-induced cytotoxicity: co-treatment of hiPSC-CMs with carfilzomib
Description: Cell viability was analyzed after IMR-90 hiPSC-CMs were treated with carfilzomib (CFZ) with or without 4H10 for 24 hours. (n=5 cultures).
as §2
(§4) Cardiomyocytes derived from human pluripotent stem cells (hiPSC-CMs) were provide a new platform for the studies of cancer drug-induced side effects and therapies. Using these cells, lead molecules were identified indicating protective properties on cardiomyocytes from the toxic effect of chemotherapy agents and ethanol (EtOH). […] Oxidative stress is a common molecular mechanism for cardiotoxicity induced by chemotherapy including proteosome inhibitors.
Consistently, treatment of hiPSC-CMs induced cell death and cytotoxicity. To examine if 4H10 could protect cardiomyocytes from carfilzomib-induced cytotoxicity, hiPSC-CMs were treated with carfilzomib at 5 μM alone or together with 4H10 at various concentrations for 24 h and then examined cell viability using the CellTiter-Blue Cell Viability Assay. Cells treated with DMSO (vehicle) were used as a control.

proteasome [8] = experiment: Proteasome activity in RPMI8226 cells after carfilzomib with or without 4H10; assay type: cell-based; settings: 4H10 with carfilzomib, 24 h
Description: as §3
(§5) Experiments were designed to determine the effects of carfilzomib and 4H10 on proteasome activity and cell viability of RPMI8226 cell line, which has been investigated for the efficacy tests of carfilzomib in […].

hiPSC-CMs [9] = experiment: Oxidative stress in EtOH-treated hiPSC-CMs; assay type: cell-based, human
From the text: as §1

RPMI8226 cells = experiment: Cell viability of RPMI8226 cells after carfilzomib with or without 4H10; assay type: cell-based; settings: 4H10 co-treatment with carfilzomib, 24 h
Description: as §3, §5

hiPSC-CMs [10] = experiment: Mitochondrial oxidative stress caused by bortezomib (PS-341); assay type: cell-based, human; settings: with bortezomib
From the text: as §4

patients = settings: cancer patients on therapy; cited from earlier work
hiPSC-CMs [11] = experiment: Chronic ethanol exposure of hiPSC-CMs: cellular properties, functions and global proteomic profiling; assay type: cell-based, human
Description: Cardiomyocytes derived from human pluripotent stem cells (hiPSC-CMs) were treated with clinically relevant doses of ethanol for various durations up to 5 weeks. The treated cells were characterized for their cellular properties and functions, and global proteomic profiling was conducted.

hiPSC-CMs [12] = settings: Liu et al., 2021; cited from earlier work
α1-AR [13] = experiment: Staining of hiPSC-CMs with BODIPY-FL-prazosin for α1-AR expression; assay type: cell-based, human; settings: fluorescent staining, α1-AR expression and localization
From the text: The expression of α1-AR was detected in hiPSC-CMs based on the BODIPY FL prazosin signals.

α1-AR [14] = settings: literature knowledge; cited from earlier work
hiPSC-CMs [15] = experiment: Effects of chemotherapeutic agents on function of hiPSC-CMs; assay type: cell-based, human; settings: melphalan treatment
[16] = clinically relevant doses of ethanol, up to 5 weeks

CNCC(=O)c1ccc(O)c(O)c1 [4H10]
cell viability, EtOH-treated SCVI-273 hiPSC-CMs (SCVI-273 hiPSC-CMs): increased cell viability | defects in expression of cardiac troponin T (hiPSC-CMs [1]): reduced | defects in mitochondrial content (hiPSC-CMs [1]): reduced | DCFDA fluorescence intensity on co-treatment (hiPSC-CMs [2]; 4H10 at 5 μM or higher + carfilzomib 5 μM, dose-dependent): reduction of DCFDA fluorescence intensity | mitigation of carfilzomib-induced oxidative stress (hiPSC-CMs [2]; co-treatment with carfilzomib, SCVI hiPSC-CMs): mitigates carfilzomib-induced intracellular oxidative stress; also recorded: mitigated carfilzomib-induced oxidative stress in hiPSC-CMs in a dose-dependent manner | MitoTracker Red fluorescence intensity on co-treatment (hiPSC-CMs [3]; 4H10 at 10 μM or higher + carfilzomib, dose-dependent): increase in fluorescence intensity | mitigation of carfilzomib-induced mitochondrial defects (hiPSC-CMs [3]; co-treatment with carfilzomib): mitigates carfilzomib-induced mitochondrial defects; also recorded: mitigated carfilzomib-induced mitochondrial defects in hiPSC-CMs in a dose-dependent manner | protection from alcohol-induced cytotoxicity (hiPSC-CMs [4]; hiPSC-CMs): can protect hiPSC-CMs from alcohol- and carfilzomib-induced cytotoxicity | cell survival following EtOH challenge (hiPSC-CMs [4]; hiPSC-CMs challenged with EtOH, cell viability assay and cell counting): increased cell survival dose-dependently | cell number after EtOH treatment (hiPSC-CMs [4]; high-content imaging): attenuated the reduced cell number induced by EtOH treatment | effect on proteasome inhibition activity of carfilzomib (proteasome [5]): does not interfere with the proteasome inhibition activity of carfilzomib; also recorded: did not interfere with the proteasome inhibition activity of carfilzomib | cell viability after co-treatment with doxorubicin and 4H10 (hiPSC-CMs [6]; 4H10 25 μM + doxorubicin 1, 2, 5 or 10 μM, 24 h, compared with doxorubicin): increased cell viability | mitigation of doxorubicin-induced cytotoxicity (hiPSC-CMs [6]; 4H10 co-treatment with doxorubicin): protects hiPSC-CMs from doxorubicin-induced cytotoxicity; also recorded: mitigated doxorubicin-induced cytotoxicity | maximal cytoprotective effect against carfilzomib (hiPSC-CMs [7]; 4H10 at 25 μM and 50 μM + carfilzomib 5 μM, 24 h): maximal cytoprotective effect for the cells to reach viability levels similar to those from DMSO-treated cells | cell viability after co-treatment with carfilzomib and 4H10 (hiPSC-CMs [7]; carfilzomib 5 μM + 4H10 at 5 μM or higher, 24 h, compared (so in the source) with DMSO-treated cells): significantly increased cell viability | mitigation of carfilzomib-induced cytotoxicity (hiPSC-CMs [7]): protection of hiPSC-CMs from carfilzomib-induced cardiotoxicity; also recorded: reduced cytotoxicity was observed; also recorded: mitigated carfilzomib-induced cytotoxicity in a dose-dependent manner | mitigation of carfilzomib-induced cytotoxicity (hiPSC-CMs [7]; listed as adrenalone HCl): protected hiPSC-CMs from cardiotoxicity induced by carfilzomib | change of proteasome activity in RPMI8226 cells by 4H10 (proteasome [8]): did not elicit any changes | oxidative stress in EtOH-treated hiPSC-CMs (hiPSC-CMs [9]): reduced oxidative stress | change of carfilzomib-reduced RPMI8226 viability by 4H10 co-treatment (RPMI8226 cells): does not interfere with the proteasome inhibition activity of carfilzomib and the ability of carfilzomib to kill cancer cells; also recorded: not significantly changed

CNCC(=O)c1ccc(O)c(O)c1 [Adrenalone, 1-(3,4-dihydroxyphenyl)-2-(methylamino) ethan-1-one]
mitochondrial oxidative stress caused by bortezomib (PS-341) (hiPSC-CMs [10]): reduced mitochondrial oxidative stress

COc1cccc2c1C(=O)c1c(O)c3c(c(O)c1C2=O)C[C@@](O)(C(=O)CO)C[C@@H]3O[C@H]1C[C@H](N)[C@H](O)[C@H](C)O1 [doxorubicin]
cardiac adverse events in patients (patients): cardiotoxicity | cell viability after doxorubicin (hiPSC-CMs [6]; doxorubicin 1-10 μM alone, 24 h, compared with untreated cells): significant decrease in cell viability

CCO [ethanol]
Ca^2+ handling (hiPSC-CMs [11]; [16]): deranged Ca^2+ handling | action potential (hiPSC-CMs [11]; [16]): abnormal action potential | cell death (hiPSC-CMs [11]; [16]): Increased cell death | contractility (hiPSC-CMs [11]; [16]): altered contractility | oxidative stress (hiPSC-CMs [11]; [16]): Increased cell death, oxidative stress | structure development (hiPSC-CMs [11]; [16]): suppressed structure development | global proteomic profiling: dysregulated proteins (hiPSC-CMs [11]; ethanol, up to 5 weeks): Many dysregulated proteins identified by global proteomic profiling were involved in apoptosis, heart contraction, and extracellular collagen matrix | signaling pathways affected (hiPSC-CMs [11]; long-term ethanol exposure): several signaling pathways including the Wnt and TGFβ signaling pathways were affected | changes in hiPSC-CMs on chronic ethanol exposure (hiPSC-CMs [12]): induces deleterious changes in cardiomyocytes

BODIPY-FL-prazosin
BODIPY FL prazosin signals in hiPSC-CMs (α1-AR [13]): co-localized with nuclei | α1-AR affinity / antagonism (α1-AR [14]): high-affinity antagonist

melphalan
cardiac adverse events in patients (patients): clinically observed arrhythmias | cardiotoxicity in hiPSC-CMs: cardiac function (hiPSC-CMs [15]): abnormal cardiac function | cardiotoxicity in hiPSC-CMs: oxidative stress (hiPSC-CMs [15]): induces cardiotoxicity, including oxidative stress
